Measurements from PMC10692721, “Drug discovery for heart failure targeting myosin-binding protein C” (The Journal of Biological Chemistry, 2023).
Entries after “also recorded” stand apart in the source; their conditions may differ. Counter-ions that a name gives are not always drawn.

Columns and labels:
[1] = system: FMAL-actin/TMR-cC0-C2 interaction; test: FLT-FRET concentration-response assay, FMAL-actin plus TMR-cC0-C2; format: binding, human
Experimental: (§1) Compounds identified as initial hits were further examined to determine the concentration–response curves for seven conditions ([1]): FMAL-actin alone identified actin-binding compounds that alter the FLT of FMAL-actin ([2]).
(§2) Fluorescence lifetime (FLT) measurements were acquired using a high-throughput FLT plate reader (Fluorescence Innovations, Inc) ([14], [27]), provided by Photonic Pharma LLC. […] The observed waveforms were analyzed as described previously ([15], [28]).
(§3) The primary hits were dissolved in DMSO to make a 10 mM stock solution, which was serially diluted in 96-well mother plates. Hits were screened at eight concentrations (0.5–100 μM). […] Compounds (1 μl) were transferred from the mother plates into 384-well plates using a Mosquito HV liquid handler (TTP Labtech Ltd, Hertfordshire, UK). The same procedure of dispensing as for the pilot screening was applied in the concentration-response assays. Concentration dependence of the FLT-FRET (E/EDMSO) or FLT-TMR (Δτ) change data was fit to a Hill equation only under certain conditions to help guide the eye (Fig. 4).

[2] = system: FMAL-actin/TMR-fC1-C2 interaction; test: FLT-FRET concentration-response assay, FMAL-actin plus TMR-fC1-C2; format: binding; conditions: skeletal MyBP-C
Experimental: as §1, §2, §3

[3] = system: FMAL-actin plus TMR-cC0-C2; test: Selleck library HTS, 473 nm excitation (FLT of FMAL-actin with TMR-cC0-C2, FLT-FRET); format: binding, human; conditions: for 473-nm Δτ, Repeat 1 / 473-nm Δτ, Repeat 2: initial screen, 30 μM compound; for 473-nm z-score (based on avg Δτ): robust z-score, hit threshold ±4, 30 μM compound
Procedure, shortened: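 Donor fluorescence lifetime was then recorded. Waveforms were fit to a single exponential, and ΔFLT was obtained after a moving-median plate-gradient correction (half-row window), rescaled by the median DMSO lifetime.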

TMR-cC0-C2 = test: Selleck library HTS, 532 nm excitation (FLT of TMR-cC0-C2 in presence of FMAL-actin); format: binding, human; conditions: for 532-nm Δτ, Repeat 1 / 532-nm Δτ, Repeat 2: initial screen, 30 μM compound; for 532-nm z-score (based on avg Δτ): robust z-score, hit threshold ±4, 30 μM compound
[4] = system: rabbit fast skeletal (psoas) myofibrils; test: Skeletal myofibril ATPase assay; format: biochemical; conditions: 50 μM compound; for effect on skeletal MF ATPase activity (in words): pCa 8 to pCa 4
Experimental: Rabbit psoas and bovine cardiac myofibrils were prepared as described in our previous study ([17]). An enzyme-coupled, NADH-linked ATPase assay was used to measure skeletal and cardiac myofibril ATPase activity in 96-well microplates at 23 °C. Ionic strength was maintained below 0.2 M, so myofilaments remained insoluble and stable ([32]). To achieve optimal enzymatic activities, buffers for skeletal and cardiac myofibrils differed slightly ([33], [34]): skeletal in 50 mM MOPS, 100 mM KCl, 5 mM MgCl2, 1 mM EGTA, pH 7.0; cardiac in 20 mM MOPS, 35 mM NaCl, 5 mM MgCl2, 1 mM EGTA, pH 7.0. Each well in the microplate contained an assay mix of 0.84 mM phosphoenolpyruvate, 0.17 mM NADH, 10 U/vol pyruvate kinase, 20 U/vol lactate dehydrogenase. The concentration of free Ca^2+ was controlled by EGTA buffering ([35]). Myofibrils were dispensed in microplates with a multichannel pipette and were incubated with assay mix plus compound of interest for 20 min at 23 °C. The concentration of myofibrils used was 0.01 mg/ml for skeletal and 0.05 mg/ml for cardiac myofibrils. The assay was started upon the addition of ATP, at a final concentration of 2.1 mM (total volume to 200 μl), and absorbance was recorded at 340 nm in a SpectraMax Plus microplate spectrophotometer from Molecular Devices. The steady-state myofibrillar ATPase rate was measured from NADH oxidation, measured as the rate of decrease in absorption at 340 nm for 30 min, with absorption data collected every 15 s. All data and statistical analysis of steady-state kinetics were conducted with the OriginPro program. The results were fitted with the Hill equation:(6) V=V0+(Vmax/1+10^−n∗^(pCa50−pCa)) where V is the ATPase rate and n is the Hill coefficient.
ATPase activity is reported on the μmol ATP/mg protein/min scale. Average data are presented as mean ± SD. Sample means are derived from three different myofibril preps (N = 3), each done in duplicate (n = 6).
The effects of compounds on ATPase activity of myofibrils were determined in the presence of 50 μM compound, across a 12-point pCa range from 4.0 (activation) to 8.0 (relaxation). The calcium sensitivity (pCa50) was determined by fitting the curves to the Hill equation. In all experiments, a 1% DMSO-only control was included. The normalized ATPase activity of the selected compounds can be found in Figure 6.

[5] = system: TMR-cC0-C2 (C0-C2 fragment of human cMyBP-C); test: FLT-TMR concentration-response assay (FLT of TMR on cC0-C2, no actin); format: binding; conditions: for cC0-C2/cC0-C2#P (ratio of FLT changes) / cC0-C2 FLT change (% change from DMSO, FLT of TMR-MyBP-C): 60 μM compound
Experimental: as §1, §2, §3

[6] = system: PKA-phosphorylated TMR-cC0-C2 (cC0-C2#P); test: FLT-TMR concentration-response assay, PKA-phosphorylated cC0-C2; format: binding, human; conditions: for cC0-C2#P FLT change (% change from DMSO, FLT of TMR-MyBP-C): 60 μM compound
Experimental: as §1, §2, §3

[7] = system: TMR-fC1-C2 (C1-C2 of fast skeletal MyBP-C); test: FLT-TMR concentration-response assay, fC1-C2; format: binding; conditions: for cC0-C2/fC1-C2 (ratio of FLT changes) / fC1-C2 FLT change (% change from DMSO, FLT of TMR-MyBP-C): 60 μM compound
Experimental: as §1, §2, §3

[8] = concentration-response, no actin

effects on actin binding (FRET) ([1]; range over cC0-C2, phosphorylated cC0-C2 and fC1-C2)	reduction in actin binding (fC1-C2-actin FRET) [2] [%]	effect on skeletal MF ATPase activity (in words) ([4]; listed as Cefsoludin sodium)	effect on Ca^2+-sensitivity of skeletal MF ATPase (in words) [4]	Structure (SMILES)	473-nm Δτ, Repeat 1 [3] [ns]	473-nm Δτ, Repeat 2 [3] [ns]	473-nm z-score (based on avg Δτ) [3]	532-nm Δτ, Repeat 1 (TMR-cC0-C2) [ns]	532-nm Δτ, Repeat 2 (TMR-cC0-C2) [ns]	532-nm z-score (based on avg Δτ) (TMR-cC0-C2)	effect on skeletal MF ATPase activity (in words) [4]	cC0-C2/cC0-C2#P (ratio of FLT changes) [5]	cC0-C2 FLT change (% change from DMSO, FLT of TMR-MyBP-C) [5] [%]	cC0-C2#P FLT change (% change from DMSO, FLT of TMR-MyBP-C) [6] [%]	cC0-C2/fC1-C2 (ratio of FLT changes) [7]	fC1-C2 FLT change (% change from DMSO, FLT of TMR-MyBP-C) [7] [%]	effect on FLT of TMR-cC0-C2 (in words) [5, 8]	effect on FLT of PKA-phosphorylated TMR-cC0-C2 (in words) [6, 8]	effect on FLT of TMR-fC1-C2 (in words) [7, 8]	effect on FLT-FRET / binding between FMAL-actin and TMR-cC0-C2 (in words) ([1]; unphosphorylated cC0-C2)
13–35%	13			CO/N=C(\C(=O)N[C@@H]1C(=O)N2C(C(=O)O)=C(C[N+]3(C)CCCC3)CS[C@H]12)c1csc(N)n1 [Cefepime dihydrochloride monohydrate]	0.127	0.102	6.43	0.006	-0.096	-2.70	affected ATPase									
		affected		NC(=O)c1cc[n+](CC2=C(C(=O)O)N3C(=O)[C@@H](NC(=O)[C@@H](c4ccccc4)S(=O)(=O)[O-])[C@H]3SC2)cc1 [Cefsulodin sodium]	0.394	0.316	19.91	0.114	0.083	6.07	affected ATPase	1.1	9.1	8.1	0.8	11.5				
				C#Cc1cccc(Nc2ncnc3cc(OCCOC)c(OCCOC)cc23)c1 [Erlotinib]	0.026	0.001	0.78	0.100	0.119	6.74	affected; also recorded: affect skeletal muscle ATPase	1.0	9.8	9.7	1.2	8.5	increases; also recorded: affect	increases	increases	decrease
			altered Ca^2+ sensitivity	C[C@@H](O)[C@H]1C(=O)N2C(C(=O)[O-])=C(S[C@@H]3CN[C@H](C(=O)Nc4cccc(C(=O)O)c4)C3)[C@H](C)[C@H]12.[Na+] [Ertapenem sodium]	0.353	0.231	16.37	0.079	0.157	7.23	marked increase in ATPase activity at pCa 8; also recorded: affected ATPase	1.3	10.2	8.0	0.8	12.2				
